According to patent publication US20030147957A1, “Dual release formulation comprising levodopa ethyl ester and a decarboxylase inhibitor in immediate release layer with levodopa ethyl ester and a decarboxylase inhibitor in a controlled release core” (priority 2001, published 2003):
Values after ≈ are worked out from the molar mass of the structure shown.

Experiment: Solubility versus pH at ~22-24° C.
Assay type: physicochemical
Conditions: 23 °C
Excerpt: However, carbidopa and LDEE, examples of two active materials in the composition of the present invention, have different chemical and physical properties and contrasting solubility characteristics especially in acid conditions, i.e., in the gastrointestinal tract (see Table 1).

[1] = aqueous buffer, pH 5.0, ~22-24° C.
[2] = simulated gastric fluid, pH 1.0, ~22-24° C.

solubility [1] [µg/mL] | solubility [2] [µg/mL] | Structure (SMILES)
1660 (≈ 7.34 mM) | 21400 (≈ 94.6 mM) | C[C@@](Cc1ccc(O)c(O)c1)(NN)C(=O)O [Carbidopa, carbidopa]
4960 (≈ 25.2 mM) | 5380 (≈ 27.3 mM) | N[C@@H](Cc1ccc(O)c(O)c1)C(=O)O [Levodopa, levodopa]
